# Assay results published in patent publication US9579314B2 (priority 2015, dated 2017).
# Target: Human β2 adrenoceptor (Homo sapiens, UniProt P07550)
# Conditions: read-out: B2 binding affinity
# Sequence of Human β2 adrenoceptor (P07550 whole entry): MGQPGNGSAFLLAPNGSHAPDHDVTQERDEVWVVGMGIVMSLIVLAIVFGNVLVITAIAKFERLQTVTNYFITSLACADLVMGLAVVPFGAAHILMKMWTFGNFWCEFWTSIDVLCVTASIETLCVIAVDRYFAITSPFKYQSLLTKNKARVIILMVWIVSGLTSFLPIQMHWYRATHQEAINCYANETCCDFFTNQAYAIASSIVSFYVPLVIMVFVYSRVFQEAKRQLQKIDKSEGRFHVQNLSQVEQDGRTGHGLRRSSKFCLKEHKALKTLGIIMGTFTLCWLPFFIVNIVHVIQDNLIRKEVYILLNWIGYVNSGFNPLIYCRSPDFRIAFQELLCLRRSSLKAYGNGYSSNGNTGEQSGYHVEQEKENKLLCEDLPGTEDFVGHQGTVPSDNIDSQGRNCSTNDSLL
row,SMILES,IC50 [nM]
1,"CN(C)CCOC(=O)[C@](O)(c1ccccc1)c1cccc(OCCCCCNC[C@H](O)c2ccc(O)c3[nH]c(=O)ccc23)c1 [Compound 17, (S)-2-(dimethylamino)ethyl 2-hydroxy-2-(3-((5-(((R)-2-hydroxy-2-(8-hydroxy-2-oxo-1,2-dihydroquinolin-5-yl)ethyl)amino)pentyl)oxy)phenyl)-2-phenylacetate]",0.3 to 3
2,"CN(C)CCOC(=O)[C@@](O)(c1ccccc1)c1cccc(OCCCCCNC[C@H](O)c2ccc(O)c3[nH]c(=O)ccc23)c1 [Compound 18, (R)-2-(dimethylamino)ethyl 2-hydroxy-2-(3-((5-(((R)-2-hydroxy-2-(8-hydroxy-2-oxo-1,2-dihydroquinolin-5-yl)ethyl)amino)pentyl)oxy)phenyl)-2-phenylacetate]",< 0.3
3,CN1CC[C@@H](OC(=O)[C@](O)(c2ccccc2)c2cccc(OCCCCCNC[C@H](O)c3ccc(O)c4[nH]c(=O)ccc34)c2)C1 [Compound 19],< 0.3
4,"CN1CC[C@@H](OC(=O)[C@@](O)(c2ccccc2)c2cccc(OCCCCCNC[C@H](O)c3ccc(O)c4[nH]c(=O)ccc34)c2)C1 [Compound 20, (R)-(R)-1-methylpyrrolidin-3-yl 2-hydroxy-2-(3-((5-(((R)-2-hydroxy-2-(8-hydroxy-2-oxo-1,2-dihydroquinolin-5-yl)ethyl)amino)pentyl)oxy)phenyl)-2-phenylacetate]",< 0.3
5,"CN1CCC(OC(=O)[C@](O)(c2ccccc2)c2cccc(OCCCCCNC[C@H](O)c3ccc(O)c4[nH]c(=O)ccc34)c2)CC1 [Compound 21, (S)-1-methylpiperidin-4-yl 2-hydroxy-2-(3-((5-(((R)-2-hydroxy-2-(8-hydroxy-2-oxo-1,2-dihydroquinolin-5-yl)ethyl)amino)pentyl)oxy)phenyl)-2-phenylacetate]",< 0.3
6,"CN1CCC(OC(=O)[C@@](O)(c2ccccc2)c2cccc(OCCCCCNC[C@H](O)c3ccc(O)c4[nH]c(=O)ccc34)c2)CC1 [Compound 22, (R)-1-methylpiperidin-4-yl 2-hydroxy-2-(3-((5-(((R)-2-hydroxy-2-(8-hydroxy-2-oxo-1,2-dihydroquinolin-5-yl)ethyl)amino)pentyl)oxy)phenyl)-2-phenylacetate]",< 0.3
7,CN1CCC[C@@H](OC(=O)[C@](O)(c2ccccc2)c2cccc(OCCCCCNC[C@H](O)c3ccc(O)c4[nH]c(=O)ccc34)c2)C1 [Compound 25],< 0.3
8,"CN1CC(OC(=O)[C@](O)(c2ccccc2)c2cccc(OCCCCCNC[C@H](O)c3ccc(O)c4[nH]c(=O)ccc34)c2)C1 [Compound 26, (S)-1-methylazetidin-3-yl 2-hydroxy-2-(3-((5-(((R)-2-hydroxy-2-(8-hydroxy-2-oxo-1,2-dihydroquinolin-5-yl)ethyl)amino)pentyl)oxy)phenyl)-2-phenylacetate]",< 0.3
9,"CN1CC[C@@H](OC(=O)C(O)(c2ccccc2)c2cccc(C(=O)NCCCCNC[C@H](O)c3ccc(O)c4[nH]c(=O)ccc34)c2)C1 (stereo partly drawn) [Compound 49, (R)-1-methylpyrrolidin-3-yl 2-hydroxy-2-(3-((4-(((R)-2-hydroxy-2-(8-hydroxy-2-oxo-1,2-dihydroquinolin-5-yl)ethyl)amino)butyl)carbamoyl)phenyl)-2-phenylacetate diformate]",< 0.3
10,"O=C(NCCCOc1cccc([C@](O)(C(=O)OC2CCN(Cc3ccccc3)CC2)c2ccccc2)c1)c1ccc(CNC[C@H](O)c2ccc(O)c3[nH]c(=O)ccc23)cc1 [Compound 158, 1-Benzylpiperidin-4-yl (S)-2-hydroxy-2-(3-(3-(4-((((R)-2-hydroxy-2-(8-hydroxy-2-oxo-1,2-dihydroquinolin-5-yl)ethyl)amino)methyl)benzamido)propoxy)phenyl)-2-phenylacetate]",< 0.3
